The subject of series [1] is carrageenan induced paw edema. Description: Carrageenan induced paw edema (CPE) in rats. Type of series: in vivo. Conditions: 10 mpk oral, rat, 3 hours after carrageenan; for inhibition in vivo at 10 mg/kg: read-out: CPE % Inhib. @ 10 mpk. Here is the method:
(§1) For oral administration, test compounds were suspended on the day of use in 100% polyethyleneglycol (PEG 400) with a motorized homogenizer equipped with a Teflon-coated pestle (TRI-R Instrument, Jamaica, N.Y.).
(§2) To compare the mean responses of the treatment groups, analysis of variance was applied. Percent inhibition values were determined by comparing the individual treatment mean values to the mean of the control group. Linear regression was used to estimate IC50's/ED50's in appropriate assays.
Hingpaw edema was […] in male rats as described by Winter et al., Proc. Soc. Exp. Biol. Med., 1962, 111, 544. Briefly, male Sprague-Dawley rats weighing between 170 and 190 g were administered test compounds orally 1 hour prior to the subplantar injection of 0.1 ml of 1% sodium carrageenan (lambda carrageenan, Sigma Chemical Co., St Louis, Mo.) into the right hindpaw. Right paw volumes (ml) were measured immediately following injection of carrageenan for baseline volume measurements using a Buxco plethysmograph (Buxco Electronics, Inc., Troy, N.Y.). Three hours after the injection of carrageenan, right paws were remeasured and paw edema calculated for each rat by subtracting the zero time reading from the 3 hour reading. Data are reported as mean percent inhibition +/−SEM. Statistical significance of results was analyzed by Dunnetts multiple comparison test where p<0.05 was considered statistically significant.

Series [2] has as its target T1, recombinant human Cox-2 (r-hu Cox-2) (Homo sapiens, UniProt P35354).
T1 construct: made in house; host or cells: baculovirus/Sf9 insect cells (microsomes)
T1 sequence (P35354 18-604): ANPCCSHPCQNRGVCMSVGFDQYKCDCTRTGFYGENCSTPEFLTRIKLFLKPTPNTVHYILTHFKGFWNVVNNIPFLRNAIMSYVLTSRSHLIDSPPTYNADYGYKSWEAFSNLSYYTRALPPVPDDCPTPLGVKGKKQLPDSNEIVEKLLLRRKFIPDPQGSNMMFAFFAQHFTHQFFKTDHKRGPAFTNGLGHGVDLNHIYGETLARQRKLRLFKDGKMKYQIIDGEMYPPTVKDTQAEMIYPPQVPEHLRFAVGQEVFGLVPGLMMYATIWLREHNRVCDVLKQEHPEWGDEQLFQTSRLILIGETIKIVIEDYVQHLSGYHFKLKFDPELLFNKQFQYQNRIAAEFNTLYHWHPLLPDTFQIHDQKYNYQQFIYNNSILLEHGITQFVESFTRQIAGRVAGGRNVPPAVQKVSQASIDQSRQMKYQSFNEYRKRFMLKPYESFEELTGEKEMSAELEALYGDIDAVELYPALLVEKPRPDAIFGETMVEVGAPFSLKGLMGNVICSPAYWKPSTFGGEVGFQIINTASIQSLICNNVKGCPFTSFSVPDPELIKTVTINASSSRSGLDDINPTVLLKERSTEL
Put plainly: Recombinant human PGHS-2 enzyme assay (RHUCX2). The series is classed as biochemical. Conditions: for inhibition at 0.1 µM / inhibition at 1 µM / inhibition at 10 µM: read-out: RHUCX2 % Inh. at Dose; for IC50: read-out: RHUCX2 IC50 (parenthetical value). The essentials:
(§3)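 PGE2 formed with and without drug quantified by EIA against matrix-matched standards; percent inhibition relative to control mean, IC50 by linear regression.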

Series [3] deals with T2, recombinant human Cox-1 (r-hu Cox1) (Homo sapiens, UniProt P23219).
T2 construct: made in house; host or cells: baculovirus/Sf9 insect cells (microsomes)
T2 sequence (P23219 24-599): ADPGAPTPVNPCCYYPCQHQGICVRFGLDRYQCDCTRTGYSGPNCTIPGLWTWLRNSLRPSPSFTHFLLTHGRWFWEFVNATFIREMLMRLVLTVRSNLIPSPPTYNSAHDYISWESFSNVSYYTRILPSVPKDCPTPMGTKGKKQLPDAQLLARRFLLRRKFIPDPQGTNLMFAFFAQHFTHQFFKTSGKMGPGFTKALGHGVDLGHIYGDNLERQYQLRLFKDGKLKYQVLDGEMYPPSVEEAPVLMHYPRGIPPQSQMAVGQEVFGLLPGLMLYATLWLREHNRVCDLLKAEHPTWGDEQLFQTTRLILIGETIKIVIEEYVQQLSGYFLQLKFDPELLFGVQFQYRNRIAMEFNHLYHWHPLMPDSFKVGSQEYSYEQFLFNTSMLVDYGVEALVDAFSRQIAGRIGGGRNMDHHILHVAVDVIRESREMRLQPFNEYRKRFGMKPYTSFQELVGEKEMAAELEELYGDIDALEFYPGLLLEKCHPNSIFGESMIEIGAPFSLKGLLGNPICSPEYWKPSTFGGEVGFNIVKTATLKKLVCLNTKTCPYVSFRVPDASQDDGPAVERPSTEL
Description: Recombinant human PGHS-1 enzyme assay (RHUCX1). Type of series: biochemical. Conditions: 100 μM; for inhibition at 100 µM: read-out: RHUCX1 % Inh. at Dose. An outline of the steps: as §3

The test system of series [4] is prostaglandin biosynthesis in vivo (pleural lavage eicosanoids). Description: Rat carrageenan pleural inflammation (CIP) model. Conditions: 10 mpk oral; for inhibition in vivo at 10 mg/kg: 4 h, read-out: CIP % Inhib. @ 10 mpk. As for the experimental part:
as §1, §2
Pleural inflammation was induced in male adrenalectomized Sprague-Dawley rats following the method of Vinegar et al., Fed. Proc. 1976, 35, 2447-2456. Animals were orally dosed with experimental compounds, 30 minutes prior to the intrapleural injection of 2% lambda carrageenan (Sigma Chemical Co., St. Louis Mo.). Four hours later the animals were euthanized and the pleural cavities lavaged with ice cold saline. The lavage fluid was then added to two volumes of ice cold methanol (final methanol concentration 66%) to lyse cells and precipitate protein. Eicosanoids were determined by EIA as described above.

Series [5] has as its target T3, Human Whole Platelet Cyclooxygenase-1 (Homo sapiens, UniProt P23219).
T3 construct: from tissue; host or cells: human blood: isolated platelets (A4) or heparinised whole blood (A9)
Description: Human Whole Platelet Cyclooxygenase-1 assay (HWPX). The series is classed as cell-based. Conditions: for IC50: read-out: HWPX IC50 (parenthetical value). The essentials:
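Washed platelets from healthy-donor ACD blood were pre-incubated with compound for 10 min, then stimulated with calcium ionophore A23187 (8.8 μM final) for 10 min. Reaction stopped with cold 6 mM EDTA; thromboxane in supernatants quantified with a commercial kit.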

The target of series [6] is T4, human amnionic whole cell cyclooxygenase-2 (WISH cells) (Homo sapiens, UniProt P35354).
T4 construct: endogenous in cells; host or cells: human amnionic WISH cells, induced with IL-1beta
T4 sequence (P35354 18-604): T1 sequence (P35354 18-604)
Description: IL-1β induced PGE2 production in WISH cells. Type of series: cell-based. Conditions: read-out: Wish IC50 (parenthetical value). An outline of the steps:
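Confluent (80%) WISH cells were stimulated with 5 ng/ml IL-1β in serum-free Neuman-Tytell medium, with or without test compound in DMSO (0.01% v/v). PGE2 in the culture medium was measured by EIA against standards prepared in the same medium, read by optical density.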

Series [7] relates to air pouch prostaglandin biosynthesis (Cox-2). Put plainly: Carrageenan induced air pouch prostaglandin biosynthesis model (CAP). The series is classed as in vivo, rat. Conditions: 4 h; 3 mpk, rat; read-out: CAP % Inhib. @ 3 mpk. An outline of the steps: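 Male Sprague Dawley rats with dorsal air pouches (20 mL air day 0, 10 mL day 3) received 0.2% lambda carrageenan in saline into the pouch on day 7. Compounds dosed at 0.1 to 10 mg/kg 30 min before carrageenan; pouch lavaged 4 h later, prostaglandins measured by EIA. Percent inhibition versus control mean; ED50 by linear regression.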

[8] abbreviates: read-out: HWPX % Inhib. at Dose.

T3 sequence (P23219 24-599): as above

As usually defined, the melting point is the temperature, or range, at which the solid turns liquid. `CS(=O)(=O)c1ccc(-c2cnn(-c3ccccc3)c(=O)c2-c2ccc(F)cc2)cc1` [Example 12, 2-Phenyl-4-(4-fluorophenyl)-5-[4-(methylsulfonyl)phenyl]-3(2H)-pyridazinone]: the melting point lay in the range of 219 to 220 °C. Moreover, in series [1], the inhibition in vivo at 10 mg/kg was found to be 25%. Moreover, in series [2], the inhibition at 0.1 µM stood at 9%, the inhibition at 1 µM worked out at 77% and the inhibition at 10 µM was determined as 97%. Moreover, the inhibition at 100 µM in series [3] stood at 0%. Also, the inhibition in vivo at 10 mg/kg in series [4] is 42%.
The term IC50 denotes the concentration that inhibits the measured activity by half. On to `CS(=O)(=O)c1ccc(-c2cnn(CC(F)(F)F)c(=O)c2-c2ccc(F)cc2)cc1` [Example 34, 2-(2,2,2-Trifluoroethyl)-4-(4-fluorophenyl)-5-[4-(methylsulfonyl)-phenyl]-3(2H)-pyridazinone], for which the melting point lay within 177 to 179 °C. The inhibition in vivo at 10 mg/kg in series [1] amounted to 31%. Moreover, the half-maximal inhibitory concentration (IC50) in series [2] came out at 920 nM. Besides, in series [3], the inhibition at 100 µM came out at 16%. The inhibition in vivo at 10 mg/kg in series [4] was 36%.
In turn, `CS(=O)(=O)c1ccc(-c2cnn(CC(F)(F)F)c(=O)c2-c2ccc(F)c(Cl)c2)cc1` [Example 54, 2-(2,2,2-Trifluoroethyl)-4-(3-chloro-4-fluorophenyl)-5-[4-(methylsulfonyl)phenyl]-3(2H)-pyridazinone] returned a melting point of 165 to 166 °C. Further, the inhibition in vivo at 10 mg/kg in series [1] was 30%. In series [2], the inhibition at 0.1 µM is 58% and the inhibition at 1 µM was 95%. Further, in series [3], the inhibition at 100 µM was 0%. The inhibition in vivo at 10 mg/kg in series [4] is 31%.
Compound `CS(=O)(=O)c1ccc(-c2cnn(-c3ccc(F)cc3)c(=O)c2-c2ccc(F)cc2)cc1` [Example 62, 2,4-Bis(4-fluorophenyl)-5-[4-(methylsulfonyl)phenyl]-3(2H)-pyridazinone] showed a melting point of 168 to 169 °C. In series [1], the inhibition in vivo at 10 mg/kg turned out to be 21%. Further, the concentration for half-maximal inhibition (IC50) in series [2] turned out to be 624 nM. Moreover, in series [3], the inhibition at 100 µM worked out at 6%. Moreover, the inhibition in vivo at 10 mg/kg in series [4] amounted to 57%.
On the same counts, the results for `NS(=O)(=O)c1ccc(-c2cnn(CC(F)(F)F)c(=O)c2-c2ccc(F)cc2)cc1` [Example 68, 2-(2,2,2-Trifluoroethyl)-4-(4-fluorophenyl)-5-[4-(aminosulfonyl)phenyl]-3(2H)-pyridazinone] are 193 to 195 °C, 40.3%, 297 nM, 32% and 64%.
`CC(C)Oc1c(-c2ccc(S(C)(=O)=O)cc2)cnn(Cc2ccccc2)c1=O` [Example 74, 2-Benzyl-4-(2-propoxy)-5-[4-(methylsulfonyl)phenyl]-3(2H)-pyridazinone]: the melting point lay in the range of 109 to 111 °C. Further, in series [1], the inhibition in vivo at 10 mg/kg turned out to be 18%. In series [3], the inhibition at 100 µM was 11%. Further, in series [4], the inhibition in vivo at 10 mg/kg amounted to 46.5%.
As for `C[S+]([O-])c1ccc(-c2cnn(CC(F)(F)F)c(=O)c2-c2ccc(Cl)cc2)cc1` (centres unmarked) [Example 77], the melting point was 154 to 155 °C. The IC50 in series [5] amounted to 8800 nM. Besides, in series [1], the inhibition in vivo at 10 mg/kg stood at 21%. In addition, the IC50 in series [6] is 126 nM. In series [2], the inhibition at 1 µM is 39% and the inhibition at 10 µM came out at 82%. For the same compound, the inhibition at 100 µM in series [3] was found to be 35%. The inhibition in vivo at 10 mg/kg in series [4] is 51%.
Regarding `CS(=O)(=O)c1ccc(-c2cnn(C3CCCCC3)c(=O)c2-c2ccc(F)cc2)cc1` [Example 120, 2-Cyclohexyl-4-(4-fluorophenyl)-5-[4-(methylsulfonyl)phenyl]-3(2H)-pyridazinone], the melting point was in the range of 169 to 171 °C. Besides, in series [5] (setting [8]), the inhibition at 1 µM was found to be 58%. In addition, in series [5] (3 μM, read-out: HWPX % Inhib. at Dose), the inhibition at 3 µM is 74%. For the same compound, in series [1], the inhibition in vivo at 10 mg/kg stood at 11%. Also, the IC50 in series [6] was found to be 25 nM. Moreover, in series [2], the inhibition at 0.1 µM was 45% and the inhibition at 1 µM amounted to 97%. Moreover, the inhibition at 100 µM in series [3] worked out at 15%. Also, the inhibition in vivo at 10 mg/kg in series [4] worked out at 5%.
Consider `CS(=O)(=O)c1ccc(-c2cnn(C3CCCC3)c(=O)c2-c2ccc(F)cc2)cc1` [Example 121, 2-Cyclopentyl-4-(4-fluorphenyl)-5-[4-(methylsulfonyl)phenyl]-3(2H)-pyridazinone], for which the “CPE % Inhib. @ 10 mpk” value in series [1] is reported as 8%. For the same compound, the IC50 in series [6] was 41 nM; in series [2], 5 nM. In addition, the “RHUCX1 % Inh. at Dose (μM)” value in series [3] is 0 @ 100%. Further, the “CIP % Inhib. @ 10 mpk” value in series [4] amounted to 19%.
With `CS(=O)(=O)c1ccc(-c2cnn(-c3ccc(Cl)cc3)c(=O)c2-c2ccc(F)cc2)cc1` [Example 160, 2-(4-Chlorophenyl)-4-(4-fluorophenyl)-5-[4-(methylsulfonyl)phenyl]-3(2H)-pyridazinone], the melting point lay within 214 to 216 °C. Besides, the IC50 in series [5] turned out to be 7200 nM. Also, in series [1], the inhibition in vivo at 10 mg/kg stood at 35%. Further, in series [6], the 50% inhibitory concentration (IC50) was 30 nM. Also, in series [4], the inhibition in vivo at 10 mg/kg turned out to be 56%.
`CS(=O)(=O)c1ccc(-c2cnn(-c3cccc(Br)c3)c(=O)c2-c2ccc(F)cc2)cc1` [Example 166, 2-(3-Bromophenyl)-4-(4-fluorophenyl)-5-[4-(methylsulfonyl)phenyl]-3(2H)-pyridazinone] showed a melting point of 210 to 212 °C. Further, in series [5], the IC50 worked out at 9400 nM. Further, the inhibition in vivo at 3 mg/kg in series [7] amounted to 59%. Also, the 50% inhibitory concentration (IC50) in series [6] worked out at 20 nM. Further, in series [2], the IC50 is 199 nM. For the same compound, in series [3], the inhibition at 100 µM worked out at 3%. In series [4], the inhibition in vivo at 10 mg/kg stood at 40%.
With `Cc1ccc(-n2ncc(-c3ccc(S(C)(=O)=O)cc3)c(-c3ccc(F)cc3)c2=O)s1` [Example 168], the melting point is 219 to 224 °C. Further, the inhibition at 1 µM in series [5] (setting [8]) is 47%. Further, the inhibition in vivo at 10 mg/kg in series [1] was 6%. Further, the concentration for half-maximal inhibition (IC50) in series [6] turned out to be 9 nM. Also, in series [2], the inhibition at 0.1 µM turned out to be 93% and the inhibition at 1 µM is 85%. Moreover, the inhibition at 100 µM in series [3] turned out to be 0%. Also, the inhibition in vivo at 10 mg/kg in series [4] was 0%.

Values taken from patent US20020028938A1, “Prostaglandin endoperoxide H synthase biosynthesis inhibitors” (priority 1997, published 2002).
